Values of other authors, collected in patent US20110244057A1, “COMBINATION THERAPIES WITH TOPIRAMATE FOR SEIZURES, RESTLESS LEGS SYNDROME, AND OTHER NEUROLOGICAL CONDITIONS” (priority 2008, published 2011).

How the values were obtained:
[1] = doses of 100 mg/day and 200 mg/day; Romigi et al., J. Neurology, 2007
[2] = tested on: kindled seizures; conditions: rats; Wauquier and Zhou, Epilepsy Res. 24:73-77, 1996

CC1(C)O[C@@H]2[C@@H](CO[C@@]3(COS(N)(=O)=O)OC(C)(C)O[C@@H]23)O1 [topiramate, 2,3:4,5-bis-O-(1-methylethyldiene)-β-D-fructopyranose sulfamate]
induction of Restless Leg Syndrome (RLS) [1]: cause RLS | effect on kindled seizures [2]: blocks kindled seizures
